Test results from patent US20120115900A1, “SUBSTITUTED NAPHTHYRIDINE DERIVATIVES AND THEIR MEDICAL USE” (NEUROSEARCH A/S, priority 2009, published 2012).

Key:
[1] = molecular target: T1, human Kv7.2+3 (Homo sapiens, UniProt O43525+O43526); assay: FLIPR-based characterization of Kv7.2+3 modulators (thallium (I) sensitive BTC fluorescence assay); format: cell-based; details: HEK293 cells over-expressing human Kv7.2+3, mean of at least two test runs; for EC50: Tl+ influx, FLIPR, 50% of channel activity compared to retigabine control responses; for Emax: maximal response relative to the reference (retigabine) response, read-out: Efficacy
T1 construct: expressed in transfected cells; host or cells: HEK293
Protocol: FLIPR-Based Characterization of Kv7.2+3 Modulators
This experiment determines the ability of a test compound to modulate the activity of Kv7.2+3 channels heterologously expressed in human HEK293 cells. The ability is determined relative to retigabine. The activity is determined using a standard thallium (I) sensitive assay, e.g. using a fluorometric method in a Fluorescent Image Plate Reader (FLIPR) as described below in more detail.
Full concentration/response curves are generated and EC50 values are calculated based on max values. EC50 values (Effective Concentration) represent the concentration of the test substance, at which 50% of the channel activity is obtained when compared to retigabine control responses. Maximal response determined relative to the reference (retigabine) response is calculated.
Human HEK293 cells over-expressing human Kv7.2+3 are grown in culture medium (DMEM supplemented with 10% foetal bovine serum), in polystyrene culture flasks ([…]) in a humidified atmosphere of 5% CO2 in air, at 37° C. Cell confluence should be 80-90% on day of plating. Cells are rinsed with 4 ml of PBS (phosphate buffered saline) and incubated 2 min with 1 ml of Trypsin-EDTA. After addition of 25 ml of culture medium cells are re-suspended by trituration with a 25 ml pipette.
The cells are seeded at a density of ˜3×10^6 cells/ml (25 μl/well) in blackwalled, clear bottom, 384-well plates pre-treated with 0.01 g/l poly-D-lysin (20 μl/well for ≧30 min). Plated cells were allowed to proliferate for 24 h before loading with dye.
BTC-AM (50 mg, Invitrogen) is added 25.5 μl DMSO. The BTC-AM stock solution (2 mM) is diluted to a final concentration of 2 μM in Cl^− free assay buffer (in mM: 140 Na^+-gluconate, 2.5 K^+-gluconate, 6 Ca2^+-gluconate, 1 Mg^2+gluconate, 5 glucose, 10 HEPES, pH 7.3) containing 2 μM ouabain, 2 mM amaranth and 1 mM tartrazine.
The culture medium is aspirated from the wells, the cells are washed thrice in Cl^− free assay buffer, and 25 μl of the BTC-AM loading solution is added to each well. The cells are incubated at 37° C. for 60 min.
After the loading period, the TI^+-sensitive BTC fluorescence signal is measured over time using a FLIPR.
• Temperature: Room temp. • First addition: 12 μl test or control compound after 15 sec at a rate of 30 μl/sec and starting height of 20 μl • Second addition: 12 μl stimulus buffer (Cl^− free assay buffer supplemented with 1 mM Tl2SO4, 5 mM K2SO4 as well as the quenchers amaranth (2 mM) and tartrazine (1 mM)) is added after an additional 3 minutes at a rate of 30 μl/sec and starting height of 30 μl • Reading intervals: First sequence—3 sec×5, 2 sec×24 and 5 sec×25 Second sequence—1 sec×5, 2 sec×24 and 5 sec×36 Addition plates (compound plate and stimulus plate) are placed in positions 2 and 3, respectively. Cell plates are placed in position 1 and run using the “KCNQ (two additions)” program. FLIPR will then take the appropriate measurements in accordance with the interval settings above. Fluorescence obtained after stimulation is corrected for the mean basal fluorescence (in Cl^− free assay buffer).
Full concentration/response curves are generated and EC50 values (“Effective Concentration”; the concentration at which 50% of the channel activity is obtained when compared to retigabine control responses) are calculated based on peak values. Maximal response determined relative to the reference (retigabine) response is calculated. Data are given as mean of at least two test runs

SMILES | EC50 [1] [nM] | Emax [1] [%] | melting point [°C]
Cc1cc(N2CCc3ncccc3C2)nc(N2CCC(F)(F)CC2)c1NC(=O)c1scnc1C [Compound 1.10, N-[2-(4,4-difluoro-1-piperidyl)-6-(7,8-dihydro-5H-1,6-naphthyridin-6-yl)-4-methyl-3-pyridyl]-4-methyl-thiazole-5-carboxamide] | 6900 | 115 | 
Cc1cc(N2CCc3ncccc3C2)nc(N2CCC(F)(F)CC2)c1NC(=O)CC1CC1 [Compound 1.13, 2-cyclopropyl-N-[2-(4,4-difluoro-1-piperidyl)-6-(7,8-dihydro-5H-1,6-naphthyridin-6-yl)-4-methyl-3-pyridyl]-acetamide] | 1100 | 109 | 
CCc1ocnc1C(=O)Nc1c(C)cc(N2CCc3ncccc3C2)nc1N1CCC(F)(F)CC1 [Compound 1.14, N-[2-(4,4-difluoro-1-piperidyl)-6-(7,8-dihydro-5H-1,6-naphthyridin-6-yl)-4-methyl-3-pyridyl]-5-ethyl-oxazole-4-carboxamide] | 20 | 89 | 
Cc1ccoc1C(=O)Nc1c(C)cc(N2CCc3ncccc3C2)nc1N1CC[C@@H](F)C1 [Compound 1.4, N-[6-(7,8-dihydro-5H-1,6-naphthyridin-6-yl)-2-[(3R)-3-fluoropyrrolidin-1-yl]-4-methyl-3-pyridyl]-3-methyl-furan-2-carboxamide] | 85 | 101 | 
Cc1cc(N2CCc3ncccc3C2)nc(N2CCC(F)(F)CC2)c1NC(=O)c1ncoc1C1CC1 [Compound 1.18, 5-cyclopropyl-N-[2-(4,4-difluoro-1-piperidyl)-6-(7,8-dihydro-5H-1,6-naphthyridin-6-yl)-4-methyl-3-pyridyl]oxazole-4-carboxamide] | 73 | 34 | 
Cc1cc(N2CCc3ncccc3C2)nc(N2CCC(F)(F)CC2)c1NC(=O)Cc1cc(F)cc(F)c1 [Compound 1.7, 2-(3,5-difluorophenyl)-N-[2-(4,4-difluoro-1-piperidyl)-6-(7,8-dihydro-5H-1,6-naphthyridin-6-yl)-4-methyl-3-pyridyl]-acetamide] | 220 | 104 | 
Cc1cccnc1C(=O)Nc1c(C)cc(N2CCc3ncccc3C2)nc1N1CCC(F)(F)CC1 [Compound 1.15, N-[2-(4,4-difluoro-1-piperidyl)-6-(7,8-dihydro-5H-1,6-naphthyridin-6-yl)-4-methyl-3-pyridyl]-3-methyl-pyridine-2-carboxamide] | 2900 | 28 | 
Cc1cc(N2CCc3ncccc3C2)nc(N2CC[C@@H](F)C2)c1NC(=O)Cc1cc(F)cc(F)c1 [Compound 1.5, 2-(3,5-difluorophenyl)-N-[6-(7,8-dihydro-5H-1,6-naphthyridin-6-yl)-2-[(3R)-3-fluoropyrrolidin-1-yl]-4-methyl-3-pyridyl]-acetamide] | 190 | 101 | 
Cc1cc(N2CCc3ncccc3C2)nc(N2CCCC2)c1NC(=O)c1cccc(F)c1 [Compound 1.3, N-[6-(7,8-Dihydro-5H-[1,6]naphthyridin-6-yl)-4-methyl-2-pyrrolidin-1-yl-pyridin-3-yl]-3-fluoro-benzamide] | 5000 | 24 | 
Cc1cc(N2CCc3ncccc3C2)nc(N2CCC(F)(F)CC2)c1NC(=O)c1nccn1C [Compound 1.8, N-[2-(4,4-difluoro-1-piperidyl)-6-(7,8-dihydro-5H-1,6-naphthyridin-6-yl)-4-methyl-3-pyridyl]-1-methyl-imidazole-2-carboxamide] | 1300 | 114 | 
Cc1cc(N2CCc3ncccc3C2)nc(N2CCC(F)(F)CC2)c1NC(=O)c1conc1C [Compound 1.11, N-[2-(4,4-difluoro-1-piperidyl)-6-(7,8-dihydro-5H-1,6-naphthyridin-6-yl)-4-methyl-3-pyridyl]-3-methyl-isoxazole-4-carboxamide] | 1200 | 115 | 
Cc1cc(N2CCc3ncccc3C2)nc(N2CCC(F)(F)CC2)c1NC(=O)c1ncoc1C [Compound 1.9, N-[2-(4,4-difluoro-1-piperidyl)-6-(7,8-dihydro-5H-1,6-naphthyridin-6-yl)-4-methyl-3-pyridyl]-5-methyl-oxazole-4-carboxamide] | 50 | 105 | 

The next lines start with the values.

EC50 [1] [nM] | Emax [1] [%] | melting point [°C] | SMILES
67 | 96 | 203 to 206 | Cc1cc(N2CCc3ncccc3C2)nc(N2CCCC2)c1NC(=O)Cc1cc(F)cc(F)c1 [Compound 1.1, 2-(3,5-Difluoro-phenyl)-N-[6-(7,8-dihydro-5H-[1,6]naphthyridin-6-yl)-4-methyl-2-pyrrolidin-1-yl-pyridin-3-yl]-acetamide]
5200 | 71 |  | Cc1cc(N2CCc3ncccc3C2)nc(N2CCC(F)(F)CC2)c1NC(=O)c1cnsc1C [Compound 1.19, N-[2-(4,4-difluoro-1-piperidyl)-6-(7,8-dihydro-5H-1,6-naphthyridin-6-yl)-4-methyl-3-pyridyl]-5-methyl-isothiazole-4-carboxamide]
65 | 100 |  | Cc1cc(N2CCc3ncccc3C2)nc(N2CCC(F)(F)CC2)c1NC(=O)c1ocnc1C [Compound 1.12, N-[2-(4,4-difluoro-1-piperidyl)-6-(7,8-dihydro-5H-1,6-naphthyridin-6-yl)-4-methyl-3-pyridyl]-4-methyl-oxazole-5-carboxamide]
280 | 100 |  | CCOC(=O)Nc1c(C)cc(N2CCc3ncccc3C2)nc1N1CCC(F)(F)CC1 [Compound 1.20, ethyl N-[2-(4,4-difluoro-1-piperidyl)-6-(7,8-dihydro-5H-1,6-naphthyridin-6-yl)-4-methyl-3-pyridyl]-carbamate]
5400 | 116 |  | Cc1nc(C(=O)Nc2c(C)cc(N3CCc4ncccc4C3)nc2N2CCC(F)(F)CC2)c(C)o1 [Compound 1.16, N-[2-(4,4-difluoro-1-piperidyl)-6-(7,8-dihydro-5H-1,6-naphthyridin-6-yl)-4-methyl-3-pyridyl]-2,5-dimethyl-oxazole-4-carboxamide]
4600 | 90 |  | Cc1cc(N2CCc3ncccc3C2)nc(N2CCC(F)(F)CC2)c1NC(=O)c1ncoc1-c1ccccc1 [Compound 1.17, N-[2-(4,4-difluoro-1-piperidyl)-6-(7,8-dihydro-5H-1,6-naphthyridin-6-yl)-4-methyl-3-pyridyl]-5-phenyl-oxazole-4-carboxamide]
19 | 81 |  | Cc1ccoc1C(=O)Nc1c(C)cc(N2CCc3ncccc3C2)nc1N1CCC(F)(F)CC1 [Compound 1.6, N-[2-(4,4-difluoro-1-piperidyl)-6-(7,8-dihydro-5H-1,6-naphthyridin-6-yl)-4-methyl-3-pyridyl]-3-methyl-furan-2-carboxamide]
1200 | 121 |  | Cc1cc(N2CCc3ncccc3C2)nc(N2CCCC2)c1NC(=O)CC(C)(C)C [Compound 1.2, N-[6-(7,8-Dihydro-5H-[1,6]naphthyridin-6-yl)-4-methyl-2-pyrrolidin-1-yl-pyridin-3-yl]-3,3-dimethyl-butyramide]
